Experimental data as given in patent publication US20090215893A1, “Parakeratosis inhibitor, pore-shrinking agent,or rough skin preventing/ameliorating agent, and external composition for skin” (Shiseido Company Ltd, priority 2005, published 2009).

How the values were obtained:
[1] = tested on: back of hairless mice (HR-1), 10 mass % oleic acid applied; assay: Inhibiting effect against rough skin induced by oleic acid application (transepidermal water loss); type: in vivo; design: ΔTEWL value: unit not given here; details: for ΔTEWL value: three days, average of four animals, rough skin worse as value increases, control 12.0; for ΔTEWL value compared with the control aqueous solution / rough skin preventing/ameliorating effect: summary of Table 3, concentrations as in Table 3
Protocol: In order to investigate the inhibiting effect of α-amino acid derivatives and salts thereof against rough skin induced by oleic acid application, the transepidermal water loss (TEWL value) before and after application was measured, the difference was compared with the control (control aqueous solution), and the effect was determined. Sample preparation and the application method were in accordance with Example 1. The TEWL was determined using the TM210 TEWA Meter (Courage+Khazaka Electronic GmBH).
100 μL of 10 mass % oleic acid (solvent: ethanol) was applied to the back of hairless mice (HR-1, four mice per group). Then a sample solution (α-amino acid derivatives, and the like) was applied 100 μL at a time. This procedure was continued for three days. The following day, the TEWL value of the back was determined and the values of the four animals were averaged. Rough skin became worse as the ΔTEWL value increased.

[2] = tested on: pores of the cheeks of healthy human males; assay: Human pore-shrinking effect (replica assessment of cheek pores); type: in vivo; details: for Replica assessment (average of n = 5): twice a day for one month, pore size rating 1-13, after application minus before application, control 0.3; for pore-shrinking effect: summary of Table 2, concentrations as in Table 2
Protocol: An experiment was conducted whereby a sample was applied twice a day for one month to the cheeks of healthy human males in groups of 5 men each. Aqueous solutions (containing 15 mass % of ethanol) of 3 mass % of the α-amino acid derivative or a salt thereof were prepared as the evaluation sample. The pH was regulated by hydrochloric acid or sodium hydroxide so as to be 7.0 to 7.5. When sample solubility was low, the solution was prepared accordingly. The control was an aqueous 15% ethanol solution. The sample aqueous solution and control aqueous solution were applied to one half of the face at a time.
A replica was collected before and after continuous application, and changes in the shape of the pores at the same site were observed using a three-dimensional laser scanning microscope. The size of the pores was macroscopically evaluated in 13 steps of 1 through 13 (with the pores becoming larger as the numbers became larger), the difference in the ratings before and after application (after application-before application) was calculated, and the efficacy of each sample was studied using this difference as the replica assessment.

[3] = tested on: back of a hairless mouse (HR-1), 10 mass % oleic acid applied; assay: Parakeratosis-inhibiting effect tests: oleic acid applied to hairless mouse back, macroscopic rough skin evaluation and parakeratosis value; type: in vivo; details: for Macroscopic evaluation (average of four animals): 100 μL after oleic acid, three days, rough skin score 0.0 (no redness) to 2.0 (control); for Parakeratosis value (average of four animals): tape-stripped stratum corneum, hematoxylin, range 1.0 to 3.0, higher = parakeratosis advanced, control 2.0; for parakeratosis value / parakeratosis-inhibiting effect / rough skin preventing effect, based on stratum corneum peeling and redness: summary of Table 1, concentrations as in Table 1
Protocol: Aqueous solutions (containing 30 mass % of ethanol) of primarily 3 mass % of an α-amino acid derivative or salt thereof were prepared as the evaluation sample. The pH was regulated by hydrochloric acid or sodium hydroxide so as to be 7.0 to 7.5. When sample solubility was low, the solution was prepared accordingly.
100 μL of 10 mass % oleic acid solution (solvent: ethanol) were applied to the back of a hairless mouse (HR-1; Hoshino Laboratory Animals). Then the sample solution (α-amino acid derivative, and the like) was applied 100 μL at a time. This procedure was continued for three days. […] The status of the skin was evaluated in 0.25-point intervals, with skin where the control (control aqueous solution) had been applied being 2.0 and skin where there was no redness being 0.0. At the same time, the stratum corneum at the back of the hairless mouse was peeled off with tape, the nuclei were stained by hematoxylin, and the degree of parakeratosis was observed and evaluated by a parakeratosis value within a range of 1.0 to 3.0 (in 0.25 increments).

[4] = tested on: cheek of a panel of 20 women; assay: Sensory irritation tests; type: in vivo, human; details: for Evaluation (sensory irritation, class of average rating): 1 mL on cheek, evaluated for ten minutes, 20 women; for sensory irritation: summary of Table 4, β-alanine at 3%
Protocol: 1 mL of a control aqueous solution and the sample aqueous solution prepared in Example 1 were applied using a cotton swab to the left or right cheek, respectively, of a panel of 20 women, the irritating sensation was evaluated every 30 seconds for ten minutes beginning immediately after application, and a final evaluation was reported. The evaluation of the irritating sensation was based on the following four steps of rating criteria, the average rating was calculated, and the average was classified by the following criteria.
3: Discontinued because of extremely strong irritation, such as stinging sensation, burning sensation, tickling sensation, itching, and the like.
2: Intolerable strong irritation, such as stinging sensation, burning sensation, tickling sensation, itching, and the like.
1: Tolerable with only slight stinging sensation, burning sensation, tickling sensation, itching, and the like.
0: Not particularly irritating.
A: average rating of less than 0.2
B: average rating of 0.2 to less than 1.0
C: average rating of 1.0 to less than 2.0
D: average rating of 2.0 or greater

| Compound | ΔTEWL value ([1]; sample 1.5 mass %) | ΔTEWL value compared with the control aqueous solution / rough skin preventing/ameliorating effect [1] | Replica assessment (average of n = 5) ([2]; sample 1.5 mass %) | pore-shrinking effect [2] | Macroscopic evaluation (average of four animals) ([3]; sample 1.5 mass %) | Parakeratosis value (average of four animals) ([3]; sample 1.5 mass %) | parakeratosis value / parakeratosis-inhibiting effect [3] | rough skin preventing effect, based on stratum corneum peeling and redness [3] | Evaluation (sensory irritation, class of average rating) ([4]; sample 1.5 mass %) | sensory irritation [4] | ΔTEWL value ([1]; sample 3 mass %) | Replica assessment (average of n = 5) ([2]; sample 3 mass %) | Macroscopic evaluation (average of four animals) ([3]; sample 3 mass %) | Parakeratosis value (average of four animals) ([3]; sample 3 mass %) | Evaluation (sensory irritation, class of average rating) ([4]; sample 3 mass %) | ΔTEWL value ([1]; sample 1 mass %) | Macroscopic evaluation (average of four animals) ([3]; sample 1 mass %) | Parakeratosis value (average of four animals) ([3]; sample 1 mass %) |
| --- | --- | --- | --- | --- | --- | --- | --- | --- | --- | --- | --- | --- | --- | --- | --- | --- | --- | --- |
| CC(NS(=O)(=O)c1ccccc1)C(=O)O (racemic) [N-benzenesulfonyl-DL-alanine] | 7.0 | significantly lower | −0.8 | seen | 1.4 | 1.5 | reduced | seen | A (average rating of less than 0.2) | no problems |  |  |  |  |  |  |  |  |
| O=C(O)C(CO)NS(=O)(=O)c1ccccc1 (racemic) [N-benzenesulfonyl-DL-serine] |  | significantly lower |  | seen |  |  | reduced | seen |  | no problems | 6.9 | −1.3 | 1.2 | 1.2 | A (average rating of less than 0.2) |  |  |  |
| CC(NC(=O)OCc1ccccc1)C(=O)O (racemic) [N-carbobenzoyloxy-DL-alanine] |  | significantly lower |  | seen |  |  | reduced | seen |  | no problems | 6.6 | −1.0 | 1.3 | 1.2 | A (average rating of less than 0.2) |  |  |  |
| O=C(NC(CO)C(=O)O)OCc1ccccc1 (racemic) [N-carbobenzoyloxy-DL-serine] |  | significantly lower |  | seen |  |  | reduced | seen |  | no problems | 6.7 | −1.3 | 1.2 | 1.2 | A (average rating of less than 0.2) |  |  |  |
| CC(NC1CCCCC1)C(=O)O (racemic) [N-cyclohexyl-DL-alanine] |  | significantly lower |  | seen |  |  | reduced | seen |  | no problems | 6.5 | −1.4 | 1.3 | 1.4 | A (average rating of less than 0.2) |  |  |  |
| O=C(O)C(CO)NC1CCCCC1 (racemic) [N-cyclohexyl-DL-serine] |  | significantly lower |  | seen |  |  | reduced | seen |  | no problems | 6.7 | −1.4 | 1.2 | 1.2 | A (average rating of less than 0.2) |  |  |  |
| CCNC(C)C(=O)O (racemic) [N-ethyl-DL-alanine] |  | significantly lower |  | seen |  |  | reduced | seen |  | no problems | 8.2 | −0.5 | 1.6 | 1.5 | A (average rating of less than 0.2) |  |  |  |
| O=C(O)CNC(=O)c1ccccc1 [Hippuric acid, reference compound] |  | not obtained |  |  |  |  | not seen |  |  |  |  |  |  |  |  | 10.5 | 1.9 | 2.0 |
| CC(=O)NCC(=O)O [N-acetyl-glycine, reference compound] |  | not obtained |  |  |  |  | not seen |  |  |  | 14.7 |  | 1.9 | 2.0 |  |  |  |  |
| O=C(O)CNCP(=O)(O)O [Phosphonomethyl-glycine, reference compound] |  | not obtained |  |  |  |  | not seen |  |  |  |  |  |  |  |  | 11.4 | 1.9 | 2.1 |
| NCCC(=O)O [β-alanine, reference compound] |  |  |  |  |  |  |  |  |  | strong sensory irritation |  |  |  |  | D (average rating of 2.0 or greater) |  |  |  |
